The test system of test [1] is patients with inadequately managed, severe chronic low back pain with or without a neuropathic pain component. Kind of test: Subject satisfaction with previous/new treatment, same trial. It is filed as in vivo, human patients. Conditions: 0.0% at Baseline. An excerpt: This was a multicenter, multinational, open-label, effectiveness phase IIIb trial to evaluate effectiveness and safety of tapentadol prolonged release treatment in patients with inadequately managed, severe chronic low back pain with or without a neuropathic pain component. Patients taking WHO Step II analgesics discontinued those analgesics before starting study medication; patients taking Step I analgesics and/or centrally acting co-analgesics continued on the same dose. […] All patients received tapentadol prolonged release (50-250 mg bid) for up to 12 weeks (5-week titration period and a 7-week maintenance period). Tapentadol immediate release (IR) 50 mg (twice a day, hours apart) was permitted (combined total daily dose of tapentadol prolonged release and tapentadol IR, 500 mg/day). The primary efficacy endpoint was the change from Baseline to Week 6 (when tapentadol prolonged release doses were stable) in average pain intensity on the 11-point NRS-3 using the last observation carried forward (LOCF) for imputing missing scores. The painDETECT questionnaire was used to evaluate the likelihood of a neuropathic pain component of low back pain; patients were classified as painDETECT “negative,” “unclear,” or “positive.” The population of patients classified as painDETECT negative was limited to approximately 30% of the total population.

For test [2] the test system is unchanged. Kind of test: Short Form 36 Health Survey (SF-36) scores, same trial. The conditions noted are these: Baseline to Week 12, all P<0.05. Type of test: in vivo, human patients. An excerpt: This was a multicenter, multinational, open-label, effectiveness phase IIIb trial to evaluate effectiveness and safety of tapentadol prolonged release treatment in patients with inadequately managed, severe chronic low back pain with or without a neuropathic pain component. Patients taking WHO Step II analgesics discontinued those analgesics before starting study medication; patients taking Step I analgesics and/or centrally acting co-analgesics continued on the same dose. […] All patients received tapentadol prolonged release (50-250 mg bid) for up to 12 weeks (5-week titration period and a 7-week maintenance period). Tapentadol immediate release (IR) 50 mg (twice a day, hours apart) was permitted (combined total daily dose of tapentadol prolonged release and tapentadol IR, 500 mg/day). The primary efficacy endpoint was the change from Baseline to Week 6 (when tapentadol prolonged release doses were stable) in average pain intensity on the 11-point NRS-3 using the last observation carried forward (LOCF) for imputing missing scores. […]
All subjects completed Short Form-36 (SF-36) and EuroQol-5 Dimension (EQ-5D) questionnaires and the Hospital Anxiety and Depression Scale (HADS). […] Adverse events were recorded throughout the trial.

The structures appear in SMILES notation.

On to `CC[C@@H](c1cccc(O)c1)[C@@H](C)CN(C)C` [tapentadol, (−)-(1R,2R)-3-(3-dimethylamino-1-ethyl-2-methyl-propyl)-phenol], for which the “percentage of patients rating satisfaction with treatment “excellent” or “very good”” value in test [1] (Week 6 (41/138)) stood at 29.7%; in test [1] (Week 12 (48/91)) it was 52.8%. Besides, the “SF-36 physical functioning, bodily pain, general health, role-emotional and physical component summary scores” value in test [2] (patients painDETECT negative or unclear/positive) is on record as “improved”. In addition, the “SF-36 role-physical, vitality, social functioning, mental health, reported health transition and mental component summary scores” value in test [2] (patients painDETECT unclear/positive) was “also improved”.

(Values after US9980927B2, “Use of tapentadol for inhibiting and/or treating depression and anxiety” (Gruenenthal GmbH, priority 2011, dated 2018).)
